Experimental data taken from PMC6150375, “Synthesis, Biological Evaluation and Molecular Docking Study of 2-Substituted-4,6-Diarylpyrimidines as α-Glucosidase Inhibitors” (Molecules : A Journal of Synthetic Chemistry and Natural …, 2017).

Row | Compound | melting point
1 | Cc1ccc(-c2cc(-c3cccc(Br)c3)nc(SCc3ccccc3Cl)n2)cc1 [Compound 6f, 4-(3-Bromophenyl)-2-((2-chlorobenzyl)thio)-6-(p-tolyl)pyrimidine] | 107 to 110 °C
2 | Clc1ccccc1CSc1nc(-c2ccc(Br)cc2)cc(-c2ccc(Br)cc2)n1 [Compound 6a, 4,6-Bis(4-bromophenyl)-2-((2-chlorobenzyl)thio)pyrimidine] | 147 to 148 °C
3 | Cc1ccc(-c2cc(-c3cccc(Br)c3)nc(SCc3ccccc3F)n2)cc1 [Compound 6i, 4-(3-Bromophenyl)-2-((2-fluorobenzyl)thio)-6-(p-tolyl)pyrimidine] | 100 to 104 °C
4 | Cc1ccc(-c2cc(-c3ccc(Br)cc3)nc(SCc3ccccc3Br)n2)cc1 [Compound 6k, 2-((2-Bromobenzyl)thio)-4-(4-bromophenyl)-6-(p-tolyl)pyrimidine] | 123 to 126 °C
5 | Cc1ccc(-c2cc(-c3ccc(Br)cc3)nc(SCc3ccc(F)cc3)n2)cc1 [Compound 6l, 4-(4-Bromophenyl)-2-((4-fluorobenzyl)thio)-6-(p-tolyl)pyrimidine] | 115 to 124 °C
6 | Fc1ccccc1CSc1nc(-c2ccc(Br)cc2)cc(-c2ccc(Br)cc2)n1 [Compound 6d, 4,6-Bis(4-bromophenyl)-2-((2-fluorobenzyl)thio)pyrimidine] | 149 to 150 °C
7 | Cc1ccc(-c2cc(-c3ccc(Br)cc3)nc(SCc3cccc(F)c3)n2)cc1 [Compound 6n, 4-(4-Bromophenyl)-2-((3-fluorobenzyl)thio)-6-(p-tolyl)pyrimidine] | 106 to 109 °C
8 | Clc1ccc(CSc2nc(-c3ccc(Br)cc3)cc(-c3ccc(Br)cc3)n2)cc1 [Compound 6b, 4,6-Bis(4-bromophenyl)-2-((4-chlorobenzyl)thio)pyrimidine] | 176 to 178 °C
9 | Cc1ccc(-c2cc(-c3ccc(Br)cc3)nc(SCc3ccccc3F)n2)cc1 [Compound 6m, 4-(4-Bromophenyl)-2-((2-fluorobenzyl)thio)-6-(p-tolyl)pyrimidine] | 124 to 127 °C

More lines, now with the values ahead:

Row | melting point | Compound
10 | 129 to 130 °C | Cc1ccc(-c2cc(-c3ccc(Br)cc3)nc(SCc3ccccc3)n2)cc1 [Compound 6o, 2-(Benzylthio)-4-(4-bromophenyl)-6-(p-tolyl)pyrimidine]
11 | 129 to 132 °C | Clc1ccccc1CSc1nc(-c2ccc(Br)cc2)cc(-c2cccc(Br)c2)n1 [Compound 6s, 4-(3-Bromophenyl)-6-(4-bromophenyl)-2-((2-chlorobenzyl)thio)pyrimidine]
12 | 135 to 138 °C | Cc1ccc(-c2cc(-c3cccc(Br)c3)nc(SCc3ccc(Br)cc3)n2)cc1 [Compound 6r, 2-((4-Bromobenzyl)thio)-4-(3-bromophenyl)-6-(p-tolyl)pyrimidine]
13 | 94 to 96 °C | Fc1cccc(CSc2nc(-c3ccc(Br)cc3)cc(-c3cccc(Br)c3)n2)c1 [Compound 6t, 4-(3-Bromophenyl)-6-(4-bromophenyl)-2-((3-fluorobenzyl)thio)pyrimidine]
